Data reported in patent US7351837B1, “Thermally cleavable surfactants without deprotonation” (Sandia Corporation, priority 2004, dated 2008).

Tests used:
Format in all cases: physicochemical
[1] = retro-DA degradation via 1H NMR; conditions: 65° C., 10 mM aqueous sample, isothermal
From the text: Percent degradation was tracked by recording the decrease in the integral value for the bridge head proton of the DA adduct located at 5.02 ppm. […] It is important to note that the percent degradation of surfactant 5 over various temperatures is not necessarily linear. This is a result of the Keq for the reversible DA reaction with DA adduct formation/stability dominating at lower temperatures.

[2] = retro-DA degradation via surface tension; conditions: 10 mM aqueous solution
Method: The surfactants of the invention undergo the retro-DA reaction after exposure to elevated temperatures. […] Data were recorded for all experiments via a computer interface using the […]3000 version 5.3 software. […] Additional measurements to determine the effect of temperature on the rates of surfactant dissociation and loss of surface active properties were conducted on 10 mM solutions of surfactant 3. The data shown in FIG. 3 clearly indicate that the temperature at which the samples are elevated to has a dramatic impact on the rate at which the surface active properties are lost in these solutions. […] At the lowest temperature monitored, 55° C., it takes over 30 hours of exposure to eliminate surface activity. The data has been fit with a logistic 4-parameter algorithm using SIGMAPLOT® (available from Systat Software, Inc., Richmond, Calif.). […] The effective control of the surface active properties of the system is envisioned to be accomplished by manipulating one or any combination of these parameters. It should also be noted that all of the surface tension measurements of the cleaved samples were taken after the samples had cooled to ambient conditions, and are convincing evidence that the dissociation accompanying the retro DA is irreversible in micelles.

[3] = critical micelle concentration by dynamic surface tension (maximum bubble pressure method); conditions: aqueous solution
Method: The dynamic surface tension measurements were conducted using a SENSADYNE® QC3000 dynamic surface tensiometer (available from the SENSADYNE® Instruments Division of the Chem-Dyne Research Corporation, Mesa, Ariz.) that utilizes the maximum bubble pressure method. The fundamental operating principles and theoretical considerations of this method are explained in detail elsewhere, and a brief summary only is given here. Two glass probes with different orifice diameters (0.5 and 4.0 mm) were submerged in an aqueous surfactant solution and nitrogen was bubbled through the samples. Dry nitrogen was used as the bubble source gas and was delivered to the instrument at 50 psi. The instrument was operated at a bubble frequency of 0.5 Hz to approximate equilibrium surface tension values for each sample. The differential pressure signal generated by bubble formation is related to the interfacial surface tension of the liquid and gas. Surface tension calibration was carried out by measuring the surface tension of deionized water and ethanol and comparing to known literature values. Solution temperature was monitored with a calibrated thermistor (± 0.1° C.) attached to the orifice probes. Instrumental calibration was conducted for every change in experimental conditions and after prolonged periods of instrumental quiescence. All experiments were conducted at 25.0±0.2° C. unless otherwise noted. […]

CCCCCCCCCCCCC12C=CC(O1)C1C(=O)N(c3ccc(S(=O)(=O)[O-])cc3)C(=O)C12.[Na+] (stereo not drawn) [surfactant 3, exo-4-Dodecyl-7-oxabicyclo[2.2.1]hept-5-ene-2,3-dicarboxy-N-(4-sodiumsulfophenyl)imide]
time of heating to complete degradation (1H NMR) [1]: about 10 hours
time of exposure to eliminate surface activity ([2]; 55° C.): over 30 hours
time of exposure to loss of all surface activity (surface tension is that of water) ([2]; 95° C.): ≤ 1 h
cmc by dynamic surface tension measurements ([3]; 25.0±0.2° C., bubble frequency 0.5 Hz): 5.1 mM
second inflection point of surface tension vs concentration (micelles begin to form) ([3]; FIG. 2): ~5 mM
